In ChEMBL document CHEMBL3431459, “Roche carnitine palmitoyltransferase modulator screening data (supplementary data associated with the publication CHEMBL2216752)”:
Converted amounts (≈) assume the structure as drawn.

Key:
[1] = biological target: T1, Carnitine O-palmitoyltransferase 1, muscle isoform (Homo sapiens, UniProt Q92523); experiment: SUPPLEMENTARY: Inhibition of Carnitine palmitoyltransferase 1, muscle isoform; parameters: species or system Muscle tissue
T1 sequence (Q92523 whole entry): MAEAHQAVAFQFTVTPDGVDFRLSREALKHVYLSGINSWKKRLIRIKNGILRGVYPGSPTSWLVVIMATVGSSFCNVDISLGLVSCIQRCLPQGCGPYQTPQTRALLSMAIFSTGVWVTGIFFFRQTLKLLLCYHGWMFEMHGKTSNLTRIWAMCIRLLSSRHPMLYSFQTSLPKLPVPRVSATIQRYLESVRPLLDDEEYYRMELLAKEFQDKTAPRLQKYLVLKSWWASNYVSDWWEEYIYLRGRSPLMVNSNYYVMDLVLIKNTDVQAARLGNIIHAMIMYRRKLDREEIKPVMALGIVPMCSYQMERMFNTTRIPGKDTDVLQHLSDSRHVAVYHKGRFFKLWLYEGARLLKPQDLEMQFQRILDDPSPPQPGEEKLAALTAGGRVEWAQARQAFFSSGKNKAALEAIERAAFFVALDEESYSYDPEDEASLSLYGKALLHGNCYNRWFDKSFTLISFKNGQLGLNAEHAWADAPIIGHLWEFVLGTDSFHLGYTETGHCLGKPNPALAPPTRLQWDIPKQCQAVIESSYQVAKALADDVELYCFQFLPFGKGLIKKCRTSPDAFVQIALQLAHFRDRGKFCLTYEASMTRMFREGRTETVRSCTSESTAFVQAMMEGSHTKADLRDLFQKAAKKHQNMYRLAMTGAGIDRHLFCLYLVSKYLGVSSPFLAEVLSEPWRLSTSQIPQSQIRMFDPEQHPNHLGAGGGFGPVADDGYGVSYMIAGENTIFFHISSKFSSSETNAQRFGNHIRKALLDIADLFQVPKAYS

[2] = SUPPLEMENTARY: Lyophilisation Solubility Assay (LYSA); format: physicochemical; conditions: read-out: Kinetic_solubility
[3] = SUPPLEMENTARY: Lipophilicity (log D) Determination by high-throughput shake-flask; format: physicochemical; conditions: octanol/water
[4] = SUPPLEMENTARY: PAMPA permeability assay; format: physicochemical; conditions: read-out: Permeability
[5] = biological target: T2, Carnitine O-palmitoyltransferase 2, mitochondrial (Rattus norvegicus, UniProt P18886); experiment: (§1) SUPPLEMENTARY: Inhibition of Carnitine palmitoyltransferase 2
T2 sequence (P18886 whole entry): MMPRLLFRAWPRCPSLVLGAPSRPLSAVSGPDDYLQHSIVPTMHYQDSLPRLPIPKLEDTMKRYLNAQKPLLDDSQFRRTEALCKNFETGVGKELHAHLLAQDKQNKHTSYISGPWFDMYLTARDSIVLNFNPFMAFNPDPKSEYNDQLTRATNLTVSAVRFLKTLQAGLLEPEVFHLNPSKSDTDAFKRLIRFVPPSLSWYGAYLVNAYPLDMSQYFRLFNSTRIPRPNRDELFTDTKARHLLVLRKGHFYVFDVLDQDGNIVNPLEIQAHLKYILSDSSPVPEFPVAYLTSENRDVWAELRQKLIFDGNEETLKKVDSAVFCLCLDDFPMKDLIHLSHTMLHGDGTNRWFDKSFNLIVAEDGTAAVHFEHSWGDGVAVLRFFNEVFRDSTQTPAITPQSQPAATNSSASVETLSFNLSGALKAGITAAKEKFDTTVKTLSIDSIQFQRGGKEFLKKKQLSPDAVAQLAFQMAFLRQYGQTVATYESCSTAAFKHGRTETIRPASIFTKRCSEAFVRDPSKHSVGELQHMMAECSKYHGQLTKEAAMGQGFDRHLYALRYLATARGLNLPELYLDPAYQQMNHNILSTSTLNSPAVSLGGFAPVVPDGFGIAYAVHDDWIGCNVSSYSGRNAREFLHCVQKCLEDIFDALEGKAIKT

[6] = biological target: T3, Carnitine O-palmitoyltransferase 2, mitochondrial (Homo sapiens, UniProt P23786); experiment: as §1
T3 sequence (P23786 whole entry): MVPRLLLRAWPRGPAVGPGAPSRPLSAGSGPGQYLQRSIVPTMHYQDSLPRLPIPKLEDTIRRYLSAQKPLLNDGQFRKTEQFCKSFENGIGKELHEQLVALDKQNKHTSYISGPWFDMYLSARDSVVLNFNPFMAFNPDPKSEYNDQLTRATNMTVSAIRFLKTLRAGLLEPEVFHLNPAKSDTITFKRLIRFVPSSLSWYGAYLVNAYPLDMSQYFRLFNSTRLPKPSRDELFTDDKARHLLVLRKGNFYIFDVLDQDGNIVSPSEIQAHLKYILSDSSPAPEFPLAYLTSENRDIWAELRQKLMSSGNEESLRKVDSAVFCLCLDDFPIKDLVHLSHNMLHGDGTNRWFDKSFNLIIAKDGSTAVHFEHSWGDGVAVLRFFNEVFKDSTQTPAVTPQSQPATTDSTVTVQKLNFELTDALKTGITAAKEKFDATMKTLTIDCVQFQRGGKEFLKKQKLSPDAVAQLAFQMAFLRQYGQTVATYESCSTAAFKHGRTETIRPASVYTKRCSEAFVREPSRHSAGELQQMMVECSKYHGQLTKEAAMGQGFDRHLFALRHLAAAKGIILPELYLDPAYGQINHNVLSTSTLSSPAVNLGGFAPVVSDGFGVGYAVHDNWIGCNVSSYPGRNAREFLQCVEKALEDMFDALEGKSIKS

[7] = biological target: T4, Carnitine O-palmitoyltransferase 1, liver isoform (Homo sapiens, UniProt P50416); experiment: (§2) SUPPLEMENTARY: Inhibition of Carnitine palmitoyltransferase 1, liver isoform
T4 sequence (P50416 whole entry): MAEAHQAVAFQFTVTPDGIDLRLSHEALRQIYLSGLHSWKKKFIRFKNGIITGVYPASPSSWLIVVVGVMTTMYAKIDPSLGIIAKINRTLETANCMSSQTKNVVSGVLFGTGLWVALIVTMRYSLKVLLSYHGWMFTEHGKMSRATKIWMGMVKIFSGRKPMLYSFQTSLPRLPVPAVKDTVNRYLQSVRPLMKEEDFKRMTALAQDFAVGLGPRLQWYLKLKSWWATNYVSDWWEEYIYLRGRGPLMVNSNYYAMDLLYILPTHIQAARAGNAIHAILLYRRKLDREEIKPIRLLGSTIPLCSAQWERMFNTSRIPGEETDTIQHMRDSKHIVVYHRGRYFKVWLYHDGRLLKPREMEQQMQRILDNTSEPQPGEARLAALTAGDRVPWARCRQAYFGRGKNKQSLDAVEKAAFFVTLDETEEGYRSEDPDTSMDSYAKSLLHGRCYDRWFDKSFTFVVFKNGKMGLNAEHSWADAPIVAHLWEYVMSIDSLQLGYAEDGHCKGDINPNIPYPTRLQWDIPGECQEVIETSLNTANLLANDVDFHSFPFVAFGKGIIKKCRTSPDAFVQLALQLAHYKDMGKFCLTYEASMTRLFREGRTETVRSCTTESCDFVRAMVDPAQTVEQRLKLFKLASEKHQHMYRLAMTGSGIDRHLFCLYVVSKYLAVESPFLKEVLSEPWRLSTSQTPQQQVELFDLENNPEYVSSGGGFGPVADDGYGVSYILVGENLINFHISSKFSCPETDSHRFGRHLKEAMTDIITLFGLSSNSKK

[8] = biological target: T5, Carnitine O-palmitoyltransferase 1, liver isoform (Rattus norvegicus, UniProt P32198); experiment: as §2
T5 sequence (P32198 whole entry): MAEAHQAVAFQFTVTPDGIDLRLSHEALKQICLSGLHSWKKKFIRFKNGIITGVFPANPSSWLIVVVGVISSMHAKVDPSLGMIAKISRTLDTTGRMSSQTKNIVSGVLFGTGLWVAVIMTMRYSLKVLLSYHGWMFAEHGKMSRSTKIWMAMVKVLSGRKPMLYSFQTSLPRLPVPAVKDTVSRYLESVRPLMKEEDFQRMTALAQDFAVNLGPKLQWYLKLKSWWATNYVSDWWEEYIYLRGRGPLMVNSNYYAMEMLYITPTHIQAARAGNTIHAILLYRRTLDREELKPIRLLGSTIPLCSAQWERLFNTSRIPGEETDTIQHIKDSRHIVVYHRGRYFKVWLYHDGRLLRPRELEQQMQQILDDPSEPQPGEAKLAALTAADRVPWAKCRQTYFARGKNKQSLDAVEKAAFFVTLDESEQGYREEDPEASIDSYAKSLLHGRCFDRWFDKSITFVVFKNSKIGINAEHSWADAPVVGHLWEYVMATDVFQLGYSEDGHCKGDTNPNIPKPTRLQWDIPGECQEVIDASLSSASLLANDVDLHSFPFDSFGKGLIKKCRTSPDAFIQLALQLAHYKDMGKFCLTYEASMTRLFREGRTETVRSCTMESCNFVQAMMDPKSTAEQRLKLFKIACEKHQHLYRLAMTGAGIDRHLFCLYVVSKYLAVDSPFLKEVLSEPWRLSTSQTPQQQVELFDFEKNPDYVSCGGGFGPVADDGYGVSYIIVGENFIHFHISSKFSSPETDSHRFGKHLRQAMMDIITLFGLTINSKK

SMILES	IC50 [1]	solubility kinetic [2]	logD [3]	Papp [4]	IC50 [5]	IC50 [6]	IC50 [7]	IC50 [8]
COc1ccc(Cl)cc1Cc1c[nH]c2ccc(C(=O)Nc3nc(CC(=O)O)cs3)cc12	1.2 µM	55 µg/mL (≈ 121 µM)	1.48	0.49 ×10⁻⁶ cm/s	> 100 µM	> 100 µM	0.0393 µM	0.0592 µM
COc1ccc(Cl)cc1S(=O)(=O)N(C)c1cc(C(=O)Nc2nc(CC(=O)O)cs2)cc2c1OCO2	1.16 µM	399 µg/mL (≈ 739 µM)	-0.12	2.43 ×10⁻⁶ cm/s	67.5 µM	28.4 µM	0.0515 µM	0.0625 µM
Cc1cccc(S(=O)(=O)N2CCOc3ccc(C(=O)Nc4nc(CC(=O)O)cs4)cc32)c1	1.08 µM	> 631 µg/mL	0.14	3.08 ×10⁻⁶ cm/s	> 100 µM	> 100 µM	0.0561 µM	0.0552 µM
O=C1Cc2cc(-c3noc(C4C5CC5CN4C(=O)COc4ccccc4)n3)ccc2N1 (stereo not given)	39 µM	38 µg/mL (≈ 91.3 µM)	2.51	5.4 ×10⁻⁶ cm/s	94.4 µM	65 µM	0.136 µM	0.388 µM
Cc1nn(C)c(-c2noc([C@H]3CCCCN3C(=O)COc3ccccc3)n2)c1Cl	> 100 µM	< 1 µg/mL	3.61	1.68 ×10⁻⁶ cm/s	> 100 µM	> 100 µM	0.0791 µM	0.252 µM
COc1ccc(Cl)cc1CN1C(=O)OC(C)(C)c2ccc(C(=O)Nc3nccs3)cc21	> 100 µM	< 1 µg/mL	> 3	0.3 ×10⁻⁶ cm/s	> 100 µM	> 100 µM	0.278 µM	> 10 µM
NC(=O)c1ccc(-c2csc([C@H]3CCCCN3C(=O)COc3ccccc3)n2)cc1	> 100 µM	43 µg/mL (≈ 102 µM)	2.26	5.48 ×10⁻⁶ cm/s	75.2 µM	18.9 µM	0.239 µM	0.484 µM
COc1ccc(Cl)cc1S(=O)(=O)N1COCc2ccc(C(=O)Nc3ccc(C(=O)O)cc3)cc21	38.6 µM	60 µg/mL (≈ 119 µM)	0.32	2.16 ×10⁻⁶ cm/s	16.6 µM	3.45 µM	0.0597 µM	0.105 µM

Other lines, results leading:

IC50 [1]	solubility kinetic [2]	logD [3]	Papp [4]	IC50 [5]	IC50 [6]	IC50 [7]	IC50 [8]	SMILES
63.8 µM	51 µg/mL (≈ 123 µM)	2.61	3.59 ×10⁻⁶ cm/s	> 100 µM	14.4 µM	0.117 µM	0.129 µM	Nc1ncc(Cl)c(-c2nc([C@H]3CCCCN3C(=O)COc3ccccc3)no2)n1
> 100 µM	77 µg/mL (≈ 178 µM)	2.18	2.18 ×10⁻⁶ cm/s	44.1 µM	40.2 µM	0.192 µM	0.546 µM	O=C1NCc2ccc(-c3n[nH]c([C@H]4CCCCN4C(=O)COc4ccccc4)n3)cc2N1
> 100 µM	< 1 µg/mL	3.62	1.35 ×10⁻⁶ cm/s	> 100 µM	> 100 µM	0.123 µM	0.131 µM	CC(=O)Nc1cc(F)cc(-c2noc([C@H]3CCCCN3C(=O)COc3ccccc3)n2)c1
79 µM	< 1 µg/mL	3.2	1.91 ×10⁻⁶ cm/s	3.52 µM	2.81 µM	0.182 µM	0.11 µM	O=C([C@H]1CCCCN1C(=O)COc1ccccc1)N1CCc2cccc(Cl)c2C1
> 100 µM	17 µg/mL (≈ 40.4 µM)	3.01	2.55 ×10⁻⁶ cm/s	> 100 µM	72.8 µM	0.0438 µM	0.104 µM	CC(=O)Nc1cccc(-c2nc([C@H]3CCCCN3C(=O)COc3ccccc3)no2)c1
1.09 µM	44 µg/mL (≈ 79.8 µM)	0.88	3.23 ×10⁻⁶ cm/s	> 100 µM	78.5 µM	0.122 µM	0.1 µM	COc1ccc(Cl)cc1S(=O)(=O)N1CCOc2c(Cl)cc(C(=O)Nc3ccc(CC(=O)O)cc3)cc21
> 100 µM	11 µg/mL (≈ 27.6 µM)	> 3	0.962 ×10⁻⁶ cm/s	> 100 µM	> 100 µM	0.19 µM	0.228 µM	O=C(COc1ccccc1)N1CCCC[C@@H]1c1nc(-c2ccc(Cl)cc2)no1
